Test results published in patent US7772255B2, “Method of treating tumors with azaxanthones” (Supratek Pharma, Inc., priority 2005, dated 2010).

Experiments:
[1] = system: B16F10/DX cells; assay: B16 experimental metastasis model (Example 26); type: in vivo, mouse; details: B16F10/DX i.v. in C57BL/6 mice; TPT 2.0 mg/kg i.v. on day 1, 4, and 7; mean±SEM
Protocol: Amlexanox solution for injections was prepared according to the Example 4. B16F10/DX cell (2.0×10^5 cells per animal) were inoculated intravenously in female C57BL//6 mice (6-7 weeks old) and animals were then divided randomly into 4 groups (n=9 except for control group): 1) intact control (n=12, saline); 2) Amlexanox (100 mg/kg, daily p.o. administration); 3) TPT (2.0 mg/kg i.v. administration on day 1, 4, and 7); 5) Amlexanox (daily p.o. 100 mg/kg)+TPT (i.v. 2.0 mg/kg on day 1, 4, and 7). Intact control received oral administration with 10 ml/kg (volume/body weight) of saline, while Amlexanox was administrated orally and daily with a dose of 100 mg/kg in a volume of 10 ml/kg. The treatments were started from the day following the tumor cell implantation until the end of the protocol. However, TPT was administrated intravenously only on day 1, 4, and 7 after tumor implantation. The animal body weight was recorded as an index of treatment toxicity during the experiment.
The data in Table show metastasis formation in the lung in the mice implanted with B16F10/DX cells. The data are expressed as mean±SEM for the number of metastatic sites on the lung surface.

[2] = system: CSML100 cells; assay: S100A4-positive lung metastasis tumor model, alone or in combinations (Example 25); type: in vivo, mouse; details: CSML100 i.v. in A/J mice, mean±SEM
Protocol: Amlexanox solution for injections was prepared according to the Example 4. […] The animals were then divided randomly into 9 groups (n=9 except for control group): 1) intact control (n=13, saline); 2) Amlexanox (i.v. 100 mg/kg); 3) Amlexanox ([…]. 3 mg/kg); 5) Amlexanox ([…]. […] 10 mg/kg). […] The treatments were started on the day following the tumor cell implantation and continued for 10 consecutive days. […] The animal body weight was recorded as an index of treatment toxicity during the experiment. […] The data are expressed as mean±SEM for the number of metastatic sites on the lung surface.

[3] = Chemical stability of Amlexanox sodium salt solution (HPLC); type: physicochemical; details: 20 mg Amlexanox sodium salt in 2 mL Tris buffer pH 7.2; 0.05 molar equivalent of the listed compound; 72 hours, ambient light, access to air; HPLC peak area
Protocol: 20 mg of crystalline Amlexanox sodium salt was dissolved in a clear glass test tube in 2 mL of Tris buffer, pH 7.2. For each of the stabilizing compounds listed in the Table below, 0.05 molar equivalent of the compound was added to the solution, mixed until dissolved, and left under ambient light, and with access to the air. Concentration of Amlexanox in the sample was determined by HPLC right after preparation, and after 72 hours. The chemical stability of Amlexanox was evaluated by comparison of area under the peak of amlexanox from the two analyses.

Row | Compound | Retained Amlexnox [3] [%] | other results
1 | CC[C@@]1(O)C(=O)OCc2c1cc1n(c2=O)Cc2cc3c(CN(C)C)c(O)ccc3nc2-1 [TPT, topotecan] | – | Lung Metastasis Number per Animal [1]: 88.0 ± 8.79; Lung Metastasis Number per Animal ([2]; TPT i.v. 3 mg/kg on day 1, 4, 7): 6.20 ± 1.32
2 | O=C1O[C@H]([C@@H](O)CO)C(O)=C1O [Ascorbic acid] | 99.5 | –
3 | COC(=O)c1ccc(O)cc1 [Methyl 4-hydroxybenzoate] | 93.1 | –
4 | Cc1occc(=O)c1O [Maltol] | 99.6 | –
5 | Cn1c(=O)c2c(ncn2C)n(C)c1=O [Caffeine] | 96.8 | –
6 | CCCOC(=O)c1cc(O)c(O)c(O)c1 [Propyl galate] | 99.7 | –
7 | COc1cccc2c1C(=O)c1c(O)c3c(c(O)c1C2=O)C[C@@](O)(C(=O)CO)C[C@@H]3O[C@H]1C[C@H](N)[C@H](O)[C@H](C)O1 [Dox, doxorubicin] | – | Lung Metastasis Number per Animal ([2]; Dox i.v. 3 mg/kg on day 1, 4, 7): 15.6 ± 2.66
